In patent US10034895B2 (priority 2017, dated 2018):

Key:
[1] = tested on: Normal human fibroblast cells (ATCC CCL-171); assay: Trypan blue viability study of normal human fibroblast cells; conditions: for cytotoxicity of D-lactic acid dimer compared with L-lactic acid: cultured normal fibroblasts, FIGS. 13-16; for Cell characteristic: cells non-viable (trypan blue): normal fibroblasts, 12 hours
Protocol: (§1) Cells for culture were obtained from the Cell Culture Facility at Duke University. PLLA was microwave synthesized from L-lactic acid as previously reported. Lactic acid concentration was measured by tetrazolium indicator color test strips (Accuvin, LLC, Napa, Calif.) from the reaction of L-lactic acid and […] in the presence of lactate dehydrogenase. All cells were cultured at 37° C. and 5% CO2 in a HERA cell incubator (Kendro Laboratory Products, L.P., Newtown, Conn.). Media for cells was Minimum Essential Media with Earl's salts and L-Glutamine (Gibco, Life Technologies) with 10% fetal bovine serum and non-essential amino acids and sodium pyruvate. Antibiotics for experiment #2 were penicillin/streptomycin and for experiments #3-4 were penicillin/streptomycin/amphotericin B. All drug testing was performed in Costar 6 Well Culture Cluster plates (Corning, Corning, N.Y.). The trypan blue concentration was 0.4%.
Normal human fibroblast cells (ATCC CCL-171) were subcultured onto six well plates. […] The cells were incubated for 12 hours after which time they were stained with 1 ml trypan blue for two minutes. The media and trypan blue were aspirated from each well, and the cells were then placed under an inverted microscope for photography.

[2] = tested on: Human retinoblastoma cells (ATCC C-33A); assay: Trypan blue viability study of human retinoblastoma cells (dose response); conditions: conclusion of Experiment 3
Protocol: (§2) Cells for culture were obtained from the Cell Culture Facility at Duke University. […] All cells were cultured at 37° C. and 5% CO2 in a HERA cell incubator (Kendro Laboratory Products, L.P., Newtown, Conn.). Media for cells was Minimum Essential Media with Earl's salts and L-Glutamine (Gibco, Life Technologies) with 10% fetal bovine serum and non-essential amino acids and sodium pyruvate. Antibiotics for experiment #2 were penicillin/streptomycin and for experiments #3-4 were penicillin/streptomycin/amphotericin B. All drug testing was performed in Costar 6 Well Culture Cluster plates (Corning, Corning, N.Y.). The trypan blue concentration was 0.4%.
(§3) Human retinoblastoma cells (ATCC C-33A) were cultured in six well plates. […] The cells were incubated for 12 hours after which time they were stained with 1 ml trypan blue for two minutes. The media and trypan blue were aspirated from each well, and the cells were examined with an inverted microscope for photography.

[3] = tested on: Human retinoblastoma cells; assay: as above; conditions: 12 hours
Protocol: as §2, §3

[4] = tested on: HeLa cells (ATCC CCL-2); assay: Trypan blue viability study of cultured HeLa cells
Protocol: as §1
HeLa cells (ATCC CCL-2) were cultured on six well plates. […] The cells were incubated for 12 hours, after which time they were stained with 1 ml trypan blue for two minutes. The media and trypan blue were aspirated from each well, and the cells were then placed under an inverted microscope for photography.

[5] = Stereocomplex reaction of L-lactic acid + D-lactic acid dimer (tetrazolium L-lactic acid test strips); conditions: room temperature, two minutes
Protocol: as §1
The reactions were carried out at room temperature and allowed to incubate for two minutes after which 20 microliters were applied to L-lactic acid test strips, and the results were read after two minutes.

Row | Structure (SMILES) | cytotoxicity of D-lactic acid dimer compared with L-lactic acid [1] | Cell characteristic: cells non-viable (trypan blue) ([1]; 1.50 mg in 1 ml media) | Cell characteristic: cells non-viable (trypan blue) ([1]; 12.5 mg in 1 ml media) | Cell characteristic: cells non-viable (trypan blue) ([1]; 25 mg in 1 ml media) | effective cytotoxic dose / concentration on human retinoblastoma cells [2] | Trypan blue staining for non-viable cells ([3]; 6.25 mg in 1 ml media) | Trypan blue staining for non-viable cells ([3]; 25 mg in 1 ml media) | concentration at which cytotoxic when applied to HeLa cells ([4]; HeLa, conclusion of Experiment 2) | cytotoxicity compared to PLLA ([4]; cultured HeLa cells, FIGS. 2 & 3) | concentration at which selectively cytotoxic when locally applied to cancer cells ([4]; summary over cancer cells (HeLa and retinoblastoma)) | Tetrazolium indicator (L-lactic acid remaining) ([5]; 0.5 mg dimer in 40 microliters of 10 mM L-lactic acid) | Tetrazolium indicator (L-lactic acid remaining) ([5]; 1.0 mg dimer in 40 microliters of 10 mM L-lactic acid) | Tetrazolium indicator (L-lactic acid remaining) ([5]; 5.0 mg dimer in 40 microliters of 10 mM L-lactic acid) | Tetrazolium indicator (L-lactic acid remaining) ([5]; 7.0 mg dimer in 40 microliters of 10 mM L-lactic acid)
1 | C[C@H](O)C(=O)O [L-lactic acid, reference compound] | more cytotoxic than D-lactic acid dimer |  |  |  |  |  |  |  |  |  |  |  |  | 
2 | C[C@@H](O)C(=O)O[C@H](C)C(=O)O [D-lactic acid dimer] | less cytotoxic on a molar basis than L-lactic acid | 0% cells non-viable | 100% cells non-viable | 100% cells non-viable | greater than 6.25 mg/ml | Thirty | Fifty | ≥ 5000 µg/mL | more cytotoxic than a mixture of PLLA oligomers | 5000 to 6250 µg/mL | 80 mg/L | no color change | no color change | no color change
